Patent US11911373B2, “Attention evaluation and methods for medicating” (TECHNION RESEARCH & DEVELOPMENT FOUNDATION LIMITED, priority 2018, dated 2024)

How the values were obtained:
rat = rat model, cited Avital et al. 2011, PLoS One 6, e22059; cited from earlier work
[1] = tested on: children suffering from ADHD; assay: Startle response, eye blink probability to startle stimuli; format: in vivo, human; details: baseline higher than controls
Description: (§1) Test subjects were escorted by their parents, and were asked not to take the MPH treatment in the morning of the experiment, and not to drink stimulating beverages such as coffee or energy drinks. The parents signed the consent form and provided the demographic data, following which the subject commenced the 3 steps procedure: • Baseline ASAT and EDA tests: The child was asked to sit on a stable chair in front of a computer screen, connected with EDA and EMG electrodes and requested to follow the instructions before wearing the headphones: • “You will be hearing different types of tones, some will be powerful and some will be moderate. […] When the session ends, all tones will be terminated” • Children diagnosed with ADHD were asked to take the MPH treatment and come back to the test room after 50 minutes. Controls were asked to take a break and return to the test room after 50 minutes. • Post 1-hour ASAT and EDA tests were conducted as at step 1. Auditory Sustained Attention Test (ASAT) […]
(§2) The session starts with 3 minutes of acclimatization period with 57 dB background noise level that is delivered continuously throughout the session. […] Ten “No stimulus” trials were recorded in order to evaluate baseline noise levels. […] The PPI is calculated as percent of the habituated/inhibited response as follows: 100−(max response to “pre+pulse” trial/max response to “pulse alone” trial×100).

[2] = tested on: children suffering from ADHD; assay: Auditory Sustained Attention Test (ASAT, pre-pulse inhibition) before and 1 hour after MPH; format: in vivo, human; details: re-test about 1 hour after taking MPH, versus baseline
Description: as §1, §2

[3] = tested on: children suffering from ADHD; assay: Electro dermal activity (EDA), skin conductance; format: in vivo, human; details: baseline higher than controls
Description: Test subjects were escorted by their parents, and were asked not to take the MPH treatment in the morning of the experiment, and not to drink stimulating beverages such as coffee or energy drinks. The parents signed the consent form and provided the demographic data, following which the subject commenced the 3 steps procedure: • Baseline ASAT and EDA tests: The child was asked to sit on a stable chair in front of a computer screen, connected with EDA and EMG electrodes and requested to follow the instructions before wearing the headphones: • “You will be hearing different types of tones, some will be powerful and some will be moderate. […] When the session ends, all tones will be terminated” • Children diagnosed with ADHD were asked to take the MPH treatment and come back to the test room after 50 minutes. Controls were asked to take a break and return to the test room after 50 minutes. • Post 1-hour ASAT and EDA tests were conducted as at step 1. […]
Electrodermal activity was monitored by changes in the skin conductance. […] An isolated skin conductance coupler (Mindlife) applied a constant 0.5V (DC) potential across the electrode pair and measured the conductivity at a sample rate of 10 Hz.
Scoring of the EDA signal: During the 3 minutes acclimatization period (subjected only to a 57 dB background white noise), all electro-dermal responses were counted as non-specific EDAs. […]

## COC(=O)C(c1ccccc1)C1CCCCN1 (stereo not shown) [MPH, methylphenidate]
rat
  long term hormonal effects: long term hormonal alterations related to hyper-anxiety and aggression
[1]
  eye blink probabilities to startle stimuli following MPH treatment: do not alternate
[2]
  ASAT performance (impairment across all pre-pulse intensities) following MPH treatment: significantly recovered
[3]
  EDAs (both specific and non-specific) following MPH treatment: do not alternate
